Measured values as given in ChEMBL document CHEMBL5126523, “Recent advances in DDR (DNA damage response) inhibitors for cancer therapy” (Eur J Med Chem, 2022).
One block for each compound: values may come before it.

What was measured:
[1] = Oral bioavailability in ICR mouse at 10 mg/kg measured for 5 to 1440 mins; format: ADME, organism-based; conditions: in vivo, time 5-1440 min
[2] = AUC (0 to last) in ICR mouse at 10 mg/kg, po measured for 5 to 1440 mins; format: ADME, organism-based; set-up: time 5-1440 min, dose 10 mg/kg, route po; conditions: in vivo
[3] = Tmax in ICR mouse at 10 mg/kg, po measured for 5 to 1440 mins; format: ADME, organism-based; conditions: in vivo, time 5-1440 min
[4] = Cmax in ICR mouse at 3 mg/kg, iv measured for 2 to 1440 mins; format: ADME, organism-based; set-up: time upper 1440 min, dose 3 mg/kg, time lower 2 min, route iv; conditions: in vivo
[5] = AUC (0 to last) in ICR mouse at 3 mg/kg, iv measured for 2 to 1440 mins; format: ADME, organism-based; set-up: time 2-1440 min, dose 3 mg/kg, route iv; conditions: in vivo
[6] = Half life in ICR mouse at 10 mg/kg, po measured for 5 to 1440 mins; format: ADME, organism-based; conditions: in vivo, time 5-1440 min
[7] = Cmax in ICR mouse at 10 mg/kg, po measured for 5 to 1440 mins; format: ADME, organism-based; set-up: time upper 1440 min, dose 10 mg/kg, time lower 5 min, route po; conditions: in vivo
[8] = Half life in ICR mouse at 3 mg/kg, iv measured for 2 to 1440 mins; format: ADME, organism-based; conditions: in vivo, time 2-1440 min
[9] = Tmax in ICR mouse at 3 mg/kg, iv measured for 2 to 1440 mins; format: ADME, organism-based; conditions: in vivo, time 2-1440 min
[10] = target: T1, Wee1-like protein kinase (Homo sapiens, UniProt P30291); assay: Inhibition of N-terminal GST-tagged wild-type WEE1 (215 to 646 residues) (unknown origin) expressed in Sf21 insect cells incubated for 60 mins in presence of ATP by ELISA
T1 sequence (P30291 whole entry, the tested form may be a part): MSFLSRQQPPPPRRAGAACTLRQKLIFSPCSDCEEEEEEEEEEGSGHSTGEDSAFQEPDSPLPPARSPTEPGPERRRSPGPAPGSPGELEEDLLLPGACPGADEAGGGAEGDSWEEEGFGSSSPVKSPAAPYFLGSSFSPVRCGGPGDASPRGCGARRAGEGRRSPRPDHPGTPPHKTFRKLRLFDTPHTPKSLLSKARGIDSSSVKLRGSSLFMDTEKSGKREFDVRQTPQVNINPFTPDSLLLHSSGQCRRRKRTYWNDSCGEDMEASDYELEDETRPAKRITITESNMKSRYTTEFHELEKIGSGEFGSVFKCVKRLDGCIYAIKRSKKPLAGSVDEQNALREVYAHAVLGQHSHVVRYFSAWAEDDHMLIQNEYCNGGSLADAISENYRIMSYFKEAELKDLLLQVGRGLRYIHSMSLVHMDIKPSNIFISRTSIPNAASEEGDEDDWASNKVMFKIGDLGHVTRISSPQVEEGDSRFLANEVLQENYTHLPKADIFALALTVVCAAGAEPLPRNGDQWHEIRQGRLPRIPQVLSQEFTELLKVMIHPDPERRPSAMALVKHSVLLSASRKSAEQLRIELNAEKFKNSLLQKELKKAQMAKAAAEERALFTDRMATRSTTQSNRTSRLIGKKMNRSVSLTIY

[11] = AUC (0 to last) in Sprague-Dawley rat at 10 mg/kg, iv by LC-MS/MS analysis; format: ADME, organism-based; set-up: time 0 - last, dose 10 mg/kg, route iv; conditions: in vivo
[12] = Half life in Sprague-Dawley rat at 10 mg/kg, iv by LC-MS/MS analysis; format: ADME, organism-based; conditions: in vivo
[13] = target: Serine/threonine-protein kinase Chk1 (Homo sapiens, UniProt O14757); assay: Inhibition of N-terminal GST-tagged full-length recombinant human CHK1 expressed in baculovirus infected Sf9 insect cells using FAM-P10 peptide as substrate preincubated for 10 mins followed by substrate addition measured after 60 mins by ADP-Glo assay
Sequence of Serine/threonine-protein kinase Chk1 (O14757 whole entry): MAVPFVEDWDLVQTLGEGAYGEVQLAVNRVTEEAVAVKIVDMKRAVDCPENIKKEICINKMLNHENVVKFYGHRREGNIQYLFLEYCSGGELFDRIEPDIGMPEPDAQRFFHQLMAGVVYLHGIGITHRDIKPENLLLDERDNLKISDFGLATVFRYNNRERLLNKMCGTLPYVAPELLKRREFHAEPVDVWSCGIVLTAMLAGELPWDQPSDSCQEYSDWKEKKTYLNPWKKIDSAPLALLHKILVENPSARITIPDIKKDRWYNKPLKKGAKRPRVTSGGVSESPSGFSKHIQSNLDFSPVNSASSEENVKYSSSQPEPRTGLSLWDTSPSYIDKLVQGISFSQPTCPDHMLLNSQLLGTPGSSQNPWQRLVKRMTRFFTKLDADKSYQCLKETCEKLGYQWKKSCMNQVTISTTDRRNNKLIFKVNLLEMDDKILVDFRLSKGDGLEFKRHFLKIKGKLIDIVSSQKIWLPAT

[14] = Oral bioavailability in BALB/c mouse at 2 mg/kg by LC-MS/MS analysis; format: ADME, organism-based; conditions: in vivo
[15] = Cmax in BALB/c mouse at 2 mg/kg, po by LC-MS/MS analysis; format: ADME, organism-based; set-up: dose 2 mg/kg, route po; conditions: in vivo
[16] = tested on: NCI-H1703; assay: Antitumor activity against human NCI-H1703 cells xenografted in BALB/c mouse assessed as tumor growth inhibition at 90 mg/kg, bid measured on day 21 by vernier caliper method relative to control; format: functional; conditions: NCI-H1703, 504 h, read-out: TGI
[17] = Half life in BALB/c mouse at 0.4 mg/kg, iv by LC-MS/MS analysis; format: ADME, organism-based; conditions: in vivo
[18] = Tmax in BALB/c mouse at 2 mg/kg, po by LC-MS/MS analysis; format: ADME, organism-based; conditions: in vivo
[19] = AUC (0 to last) in BALB/c mouse at 2 mg/kg, po by LC-MS/MS analysis; format: ADME, organism-based; set-up: time 0 - last, dose 2 mg/kg, route po; conditions: in vivo
[20] = Half life in BALB/c mouse at 2 mg/kg, po by LC-MS/MS analysis; format: ADME, organism-based; conditions: in vivo
[21] = AUC (0 to last) in BALB/c mouse at 0.4 mg/kg, iv by LC-MS/MS analysis; format: ADME, organism-based; set-up: time 0 - last, dose 0.4 mg/kg, route iv; conditions: in vivo
[22] = Cmax in overnight fasted rat at 5 mg/kg, po via gavage measured for 0.25 to 24 hrs by LC/MS/MS analysis; format: ADME, organism-based; set-up: dose 5 mg/kg, time upper 24 hrs, time lower 0.25 hrs, route po; conditions: in vivo
[23] = AUC (0 to last) in overnight fasted rat at 5 mg/kg, po via gavage measured for 0.25 to 24 hrs by LC/MS/MS analysis; format: ADME, organism-based; set-up: time upper 24 hrs, dose 5 mg/kg, time lower 0.25 hrs, route po; conditions: in vivo
[24] = target: T1, Wee1-like protein kinase; assay: Displacement of tracer 178 from N-terminal GST-fused human WEE1 (215 to 646 residues) expressed in baculovirus expression system preincubated for 5 mins followed by tracer addition measured after 60 mins by Lantha Screen EU assay
[25] = target: DNA-dependent protein kinase catalytic subunit (Homo sapiens, UniProt P78527); assay: Inhibition of DNA-PK (unknown origin)
[26] = AUC (0 to last) in mouse at 0.4 mg/kg, iv; format: ADME, organism-based; set-up: time 0 - last, dose 0.4 mg/kg, route iv; conditions: in vivo
[27] = Half life in mouse at 0.4 mg/kg, iv; format: ADME, organism-based; conditions: in vivo
[28] = target: ATR/ATRIP (Homo sapiens, UniProt Q13535); assay: Inhibition of human FLAG-tagged ATR/c-Myc-tagged ATRIP expressed in mammalian expression system using p53 as substrate incubated for 2 hrs by fluorescence based assay
Sequence of ATR/ATRIP (Q13535 whole entry): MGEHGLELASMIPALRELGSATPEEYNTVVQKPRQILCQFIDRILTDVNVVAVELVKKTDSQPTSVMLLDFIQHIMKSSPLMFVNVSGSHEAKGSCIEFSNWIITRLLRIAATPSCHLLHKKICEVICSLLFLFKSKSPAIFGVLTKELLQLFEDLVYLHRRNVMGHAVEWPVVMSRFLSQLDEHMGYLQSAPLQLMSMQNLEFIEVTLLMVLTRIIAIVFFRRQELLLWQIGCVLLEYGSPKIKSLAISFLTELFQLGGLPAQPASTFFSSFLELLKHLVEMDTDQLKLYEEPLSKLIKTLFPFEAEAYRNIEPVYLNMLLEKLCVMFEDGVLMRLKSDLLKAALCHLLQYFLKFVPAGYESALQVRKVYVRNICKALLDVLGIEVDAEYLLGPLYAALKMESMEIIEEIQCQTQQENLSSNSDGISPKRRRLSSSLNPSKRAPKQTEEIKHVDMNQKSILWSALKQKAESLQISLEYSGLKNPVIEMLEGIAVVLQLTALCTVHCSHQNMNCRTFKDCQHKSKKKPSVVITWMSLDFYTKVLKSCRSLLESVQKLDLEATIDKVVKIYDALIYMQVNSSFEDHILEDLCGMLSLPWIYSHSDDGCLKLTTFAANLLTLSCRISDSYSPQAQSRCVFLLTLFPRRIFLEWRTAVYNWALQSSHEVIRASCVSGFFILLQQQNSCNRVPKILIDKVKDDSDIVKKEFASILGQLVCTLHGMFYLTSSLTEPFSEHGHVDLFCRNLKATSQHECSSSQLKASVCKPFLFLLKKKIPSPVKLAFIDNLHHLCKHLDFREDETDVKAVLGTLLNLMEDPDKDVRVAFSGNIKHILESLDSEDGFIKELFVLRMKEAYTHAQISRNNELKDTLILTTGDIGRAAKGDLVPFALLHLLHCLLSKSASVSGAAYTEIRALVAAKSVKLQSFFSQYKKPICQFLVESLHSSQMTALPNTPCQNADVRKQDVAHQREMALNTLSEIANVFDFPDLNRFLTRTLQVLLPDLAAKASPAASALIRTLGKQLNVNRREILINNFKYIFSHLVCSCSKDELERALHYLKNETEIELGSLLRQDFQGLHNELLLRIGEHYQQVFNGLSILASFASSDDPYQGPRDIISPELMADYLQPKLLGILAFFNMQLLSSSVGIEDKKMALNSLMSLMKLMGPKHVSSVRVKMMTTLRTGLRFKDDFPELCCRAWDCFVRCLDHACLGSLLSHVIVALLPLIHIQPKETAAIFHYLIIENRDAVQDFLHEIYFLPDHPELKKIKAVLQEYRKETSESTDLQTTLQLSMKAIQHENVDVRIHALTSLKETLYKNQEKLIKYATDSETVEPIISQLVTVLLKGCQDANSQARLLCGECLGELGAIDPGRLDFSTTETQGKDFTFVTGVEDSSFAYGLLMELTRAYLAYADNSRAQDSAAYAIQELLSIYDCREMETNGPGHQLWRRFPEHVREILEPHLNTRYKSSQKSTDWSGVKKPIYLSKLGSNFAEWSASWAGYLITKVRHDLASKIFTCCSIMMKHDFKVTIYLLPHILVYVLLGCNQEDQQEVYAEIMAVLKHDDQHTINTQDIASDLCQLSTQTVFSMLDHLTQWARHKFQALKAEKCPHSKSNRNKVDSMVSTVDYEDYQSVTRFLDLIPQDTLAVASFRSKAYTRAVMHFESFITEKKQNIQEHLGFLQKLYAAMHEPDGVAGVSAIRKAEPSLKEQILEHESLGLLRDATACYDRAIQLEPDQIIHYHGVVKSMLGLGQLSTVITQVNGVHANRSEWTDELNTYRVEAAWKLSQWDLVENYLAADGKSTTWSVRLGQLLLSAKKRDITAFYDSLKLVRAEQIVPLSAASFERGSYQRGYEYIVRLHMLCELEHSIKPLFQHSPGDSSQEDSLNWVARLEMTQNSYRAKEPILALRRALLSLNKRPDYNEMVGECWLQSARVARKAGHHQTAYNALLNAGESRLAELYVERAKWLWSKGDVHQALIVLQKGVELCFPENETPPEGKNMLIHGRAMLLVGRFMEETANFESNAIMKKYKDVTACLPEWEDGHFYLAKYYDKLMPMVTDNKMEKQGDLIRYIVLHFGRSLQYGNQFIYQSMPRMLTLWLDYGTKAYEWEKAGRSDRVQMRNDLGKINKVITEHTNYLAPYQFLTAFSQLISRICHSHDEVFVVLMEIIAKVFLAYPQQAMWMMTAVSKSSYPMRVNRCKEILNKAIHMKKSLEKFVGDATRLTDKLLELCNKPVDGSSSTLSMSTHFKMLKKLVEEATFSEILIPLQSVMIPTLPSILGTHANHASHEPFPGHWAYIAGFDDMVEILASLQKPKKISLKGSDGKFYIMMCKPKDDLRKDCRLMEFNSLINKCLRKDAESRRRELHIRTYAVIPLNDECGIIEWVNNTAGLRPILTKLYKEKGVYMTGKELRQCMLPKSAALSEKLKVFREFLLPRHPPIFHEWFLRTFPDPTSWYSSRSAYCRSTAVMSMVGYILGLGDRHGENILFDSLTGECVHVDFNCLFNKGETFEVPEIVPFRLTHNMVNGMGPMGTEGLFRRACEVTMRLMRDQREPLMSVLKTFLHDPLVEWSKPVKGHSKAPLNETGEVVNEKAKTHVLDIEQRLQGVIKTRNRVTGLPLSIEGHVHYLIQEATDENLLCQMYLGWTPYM
Sequence of ATR/ATRIP (Q8WXE1 whole entry, further chain): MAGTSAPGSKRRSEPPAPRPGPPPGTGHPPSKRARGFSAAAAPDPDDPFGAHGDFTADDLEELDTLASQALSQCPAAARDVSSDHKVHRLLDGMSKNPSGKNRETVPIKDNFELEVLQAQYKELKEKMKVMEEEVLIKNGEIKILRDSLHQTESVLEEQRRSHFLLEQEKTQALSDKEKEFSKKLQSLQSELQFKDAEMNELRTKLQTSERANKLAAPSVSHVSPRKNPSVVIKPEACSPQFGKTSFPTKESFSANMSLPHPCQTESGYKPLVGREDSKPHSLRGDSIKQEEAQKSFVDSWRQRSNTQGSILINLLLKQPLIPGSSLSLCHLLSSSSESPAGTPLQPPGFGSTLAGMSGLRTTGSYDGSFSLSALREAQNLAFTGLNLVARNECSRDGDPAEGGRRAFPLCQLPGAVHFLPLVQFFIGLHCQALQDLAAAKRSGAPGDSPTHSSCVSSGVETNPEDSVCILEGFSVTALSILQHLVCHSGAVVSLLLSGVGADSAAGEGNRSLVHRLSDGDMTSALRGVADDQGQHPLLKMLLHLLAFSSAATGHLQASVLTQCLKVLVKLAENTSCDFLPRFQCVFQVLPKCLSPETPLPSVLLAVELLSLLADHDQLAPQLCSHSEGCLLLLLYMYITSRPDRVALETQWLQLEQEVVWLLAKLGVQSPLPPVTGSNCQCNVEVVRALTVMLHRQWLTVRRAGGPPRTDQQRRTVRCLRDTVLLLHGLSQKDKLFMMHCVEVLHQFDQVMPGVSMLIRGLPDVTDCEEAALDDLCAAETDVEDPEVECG

[29] = Cmax in overnight fasted Sprague-Dawley rat at 2 mg/kg, po via gavage measured for 0.25 to 24 hrs by LC/MS/MS analysis; format: ADME, organism-based; set-up: dose 2 mg/kg, time upper 24 hrs, time lower 0.25 hrs, route po; conditions: in vivo
[30] = tested on: LoVo; assay: Inhibition of cell growth in human LoVo cells assessed as measuring ATP content incubated for 3 days by Cell Titer Glo assay; format: functional, cell-based; conditions: 72 h
[31] = Half life in overnight fasted Sprague-Dawley rat at 2 mg/kg, po via gavage measured for 0.25 to 24 hrs by LC/MS/MS analysis; format: ADME, organism-based; conditions: in vivo, time 0.25-24 hrs
[32] = AUC in overnight fasted Sprague-Dawley rat at 2 mg/kg, po via gavage measured for 0.25 to 24 hrs by LC/MS/MS analysis; format: ADME, organism-based; set-up: time 0.25-24 hrs, dose 2 mg/kg, route po; conditions: in vivo
[33] = target: T1, Wee1-like protein kinase; assay: Inhibition of WEE1 (unknown origin) using LSNLYHQGKFLQTFCGSPLYRRR polypeptide as substrate incubated for 40 mins in presence of [gamma-33P]-ATP by scintillation counting method
[34] = target: T2, Serine/threonine-protein kinase ATR (Homo sapiens, UniProt Q13535); assay: Inhibition of ATR (unknown origin)-driven CHK1 phosphorylation
T2 sequence (Q13535 whole entry): as the sequence (Q13535 whole entry) above

[35] = target: T2, Serine/threonine-protein kinase ATR; assay: Binding affinity to ATR (unknown origin) assessed as inhibition constant
[36] = target: T3, Protein cereblon/Wee1-like protein kinase (Homo sapiens, UniProt P30291+Q96SW2); assay: PROTAC activity at CRBN/recombinant WEE1 (unknown origin) assessed as induction of WEE1 degradation by FRET based Lantha Screen assay; format: protein assay
T3 sequence (P30291 whole entry): as the sequence (P30291 whole entry, the tested form may be a part) above
T3 sequence (Q96SW2 whole entry): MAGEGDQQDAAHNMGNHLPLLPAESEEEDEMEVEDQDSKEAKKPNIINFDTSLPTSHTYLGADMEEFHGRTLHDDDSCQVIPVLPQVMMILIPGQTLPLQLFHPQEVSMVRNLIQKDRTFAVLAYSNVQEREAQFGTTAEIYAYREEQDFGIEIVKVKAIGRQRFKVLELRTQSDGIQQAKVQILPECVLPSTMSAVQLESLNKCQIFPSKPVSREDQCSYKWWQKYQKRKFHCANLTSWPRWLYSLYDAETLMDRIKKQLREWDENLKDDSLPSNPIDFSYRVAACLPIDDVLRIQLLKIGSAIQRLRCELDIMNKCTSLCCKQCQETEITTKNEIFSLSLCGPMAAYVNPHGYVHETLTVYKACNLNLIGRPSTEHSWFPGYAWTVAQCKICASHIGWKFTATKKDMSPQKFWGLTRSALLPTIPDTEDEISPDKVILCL

[37] = target: T3, Protein cereblon/Wee1-like protein kinase; assay: PROTAC activity at CRBN/WEE1 in human […] assessed as induction of WEE1 degradation treated for 5 hrs by Western blot analysis; format: cell-based
[38] = tested on: HT-29; assay: Antitumor activity against human HT-29 cells xenografted in BALB/c mouse assessed as tumor growth inhibition relative to control; format: functional
[39] = Half life in BALB/c nude mouse at 1 mg/kg, iv measured for 0.08 to 24 hrs by LC-MS/MS analysis; format: ADME, organism-based; conditions: in vivo, time 0.08-24 hrs
[40] = AUC (0 to last) in BALB/c nude mouse at 1 mg/kg, iv measured for 0.08 to 24 hrs by LC-MS/MS analysis; format: ADME, organism-based; set-up: time 0.08-24 hrs, dose 1 mg/kg, route iv; conditions: in vivo
[41] = Oral bioavailability in BALB/c nude mouse at 1 mg/kg, iv measured for 0.08 to 24 hrs by LC-MS/MS analysis; format: ADME, organism-based; conditions: in vivo, time 0.08-24 hrs
[42] = tested on: LoVo; assay: Antitumor activity against human LoVo cells xenografted in BALB/c nude mouse assessed as tumor growth inhibition at 40 mg/kg,iv bid by vernier caliper method relative to control; format: functional; conditions: read-out: TGI

Compound: C=CCn1c(=O)c2cnc(Nc3ccc(N4C[C@H]5CN(CC6CC6)C[C@H]5C4)cc3)nc2n1-c1ccc(C(C)(C)O)cn1
bioavailability [1]: 63.7%
AUC(0-t) [2]: 326 ng·h/mL
Tmax [3]: 55.2 min
Cmax [4]: 430 nM
AUC(0-t) [5]: 153 ng·h/mL
half-life [6]: 57 min
Cmax [7]: 266 nM
half-life [8]: 43.8 min
Tmax [9]: 1.8 min
IC50 [10]: 3.12 nM

Compound: CCOC(=O)NCCCOc1cc(F)cc(OC)c1-c1cc(Nc2cnc(C#N)cn2)n[nH]1
AUC(0-t) [11]: 2990 ng·h/mL
half-life [12]: 318 min
IC50 [13]: < 50 nM

Compound: Cc1cc2ncnn2cc1Nc1ncc2c(n1)n(N1CC3CCC(C1)O3)c(=O)n2C
bioavailability [14]: 44.5%
Cmax [15]: 2170 nM
inhibition in vivo at 90 mg/kg [16]: 79.4%
half-life [17]: 76.8 min
Tmax [18]: 15 min
AUC(0-t) [19]: 3.49 µM·h
half-life [20]: 231 min
AUC(0-t) [21]: 1.66 µM·h

Compound: COc1ccc(C2(c3cc(-c4ncnc5cc(N6CCOCC6)ccc45)c(F)cc3Cl)CC2)nn1
IC50 [25]: 29 nM
AUC(0-t) [26]: 2260 ng·h/mL
half-life [27]: 35.4 min

Compound: C[C@@H]1COCCN1c1nc(-c2ccnn2C)c2c(n1)c(-c1ccn[nH]1)nn2C
IC50 [28]: 15 nM
Cmax [29]: 674 ng/mL
IC50 [30]: 124 nM
half-life [31]: 134 min
AUC [32]: 2710 ng·h/mL

Compound: Nc1nn2cc(F)cnc2c1C(=O)Nc1cncc(F)c1N1CCC(C(=O)N2CCN(C3COC3)CC2)CC1 [M4344]
IC50 [34]: 8 nM
Ki [35]: < 0.15 nM

Compound: COc1cc(F)cc(OCCCN)c1-c1cc(Nc2cnc(C#N)cn2)n[nH]1
AUC(0-t) [11]: 4640 ng·h/mL
TGI [38]: 51%
IC50 [13]: < 1 nM

Now from value to compound, other results behind:

Cmax [22]: 117 nM
AUC(0-t) [23]: 4580 ng·h/mL
Compound: CN1CCN(C2CCN(c3ccc(Nc4ncc5c(F)c(C6CC6)n(-c6cccc(C(C)(C)O)n6)c5n4)cc3F)CC2)CC1

Cmax [22]: 163 nM
IC50 [24]: 1.03 nM
AUC(0-t) [23]: 4070 ng·h/mL
Compound: CN1CCC2(CC1)CCN(c1ccc(Nc3ncc4cc(C5CC5)n(-c5cccc(C(C)(C)O)n5)c4n3)cc1)CC2

IC50 [33]: 57 nM
Compound: CN1CC2CN(c3ccc(Nc4ncc5c(=O)n6n(c5n4)-c4cccc(n4)C(C)(O)CCC/C=C\C6)cc3)CC2C1 (configuration not stated)

bioavailability [1]: 64.3%
AUC(0-t) [2]: 409 ng·h/mL
Tmax [3]: 79.8 min
Cmax [4]: 241 nM
AUC(0-t) [5]: 191 ng·h/mL
half-life [6]: 79.2 min
Cmax [7]: 121 nM
half-life [8]: 55.2 min
Tmax [9]: 1.8 min
IC50 [10]: 1.83 nM
Compound: C=CCn1c(=O)c2cnc(Nc3ccc(N4C[C@H]5CN(C)C[C@H]5C4)cc3)nc2n1-c1ccc(C(C)(C)O)cn1

IC50 [36]: 3.58 nM
EC50 [37]: 100 nM
Compound: C=CCn1c(=O)c2cnc(Nc3ccc(N4CCN(CCCNc5cccc6c5C(=O)N(C5CCC(=O)NC5=O)C6=O)CC4)cc3)nc2n1-c1cccc(C(C)(C)O)n1 (configuration not stated)

half-life [39]: 101 min
AUC(0-t) [40]: 6.04 µM·h
bioavailability [41]: 62.4%
IC50 [33]: 29 nM
Compound: CN1CCN(c2ccc(Nc3ncc4c(=O)n5n(c4n3)-c3cccc(n3)[C@@](C)(O)CCC/C=C\C5)cc2)CC1
inhibition in vivo at 40 mg/kg [42]: 84.7%
